Experimental data taken from PubChem BioAssay AID248 (DTP/NCI, 2004).
Where “and” joins values, the source holds several entries; their conditions need not be identical. Equal values may be shown once. Inconclusive results and toxic doses are left out. Cut-off read from the data, not from the text of the source: active = T/C of 150% or more; inactive = T/C below 125%.

Tested on: L1210 leukemia ip in BDF1 mice, survival T/C
Assay: NCI In Vivo Anticancer Drug Screen. Data for tumor model L1210 Leukemia (intraperitoneal) in B6D2F1 (BDF1) mice
Settings: endpoint: mean survival time, higher = longer survival
Summary of the method: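 Transplantable tumor model; survival measured in treated vs vehicle control mice. Value = treated/control.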

[1] = dose: 100.0 mg/kg/injection, schedule: Q01DX001 (ip), vehicle: saline
[2] = dose: 200.0 mg/kg/injection, schedule: Q01DX001 (ip), vehicle: saline
[3] = dose: 400.0 mg/kg/injection, schedule: Q01DX001 (ip), vehicle: saline
[4] = dose: 100.0 mg/kg/injection, schedule: Q04DX002 (ip), vehicle: saline
[5] = dose: 400.0 mg/kg/injection, schedule: Q04DX002 (ip), vehicle: saline
[6] = dose: 100.0 mg/kg/injection, schedule: Q01DX009 (ip), vehicle: saline with Tween-80
[7] = dose: 100.0 mg/kg/injection, schedule: Q04DX003 (ip), vehicle: saline with Tween-80
[8] = dose: 200.0 mg/kg/injection, schedule: Q01DX009 (ip), vehicle: saline with Tween-80
[9] = dose: 200.0 mg/kg/injection, schedule: Q04DX003 (ip), vehicle: saline with Tween-80
[10] = dose: 400.0 mg/kg/injection, schedule: Q01DX009 (ip), vehicle: saline with Tween-80
[11] = dose: 400.0 mg/kg/injection, schedule: Q04DX003 (ip), vehicle: saline with Tween-80
[12] = dose: 100.0 mg/kg/injection, schedule: Q04DX003 (ip), vehicle: Klucel (hydroxypropylcellulose) (HPC)
[13] = dose: 200.0 mg/kg/injection, schedule: Q04DX003 (ip), vehicle: Klucel (hydroxypropylcellulose) (HPC)
[14] = dose: 50.0 mg/kg/injection, schedule: Q01DX009 (ip), vehicle: Klucel (hydroxypropylcellulose) (HPC)
[15] = dose: 100.0 mg/kg/injection, schedule: Q01DX009 (ip), vehicle: Klucel (hydroxypropylcellulose) (HPC)
[16] = dose: 100.0 mg/kg/injection, schedule: Q01DX Z (ip), vehicle: methylcellulose (MC)
[17] = dose: 100.0 mg/kg/injection, schedule: Q04DX002 (ip), vehicle: saline with Tween-80
[18] = dose: 200.0 mg/kg/injection, schedule: Q04DX002 (ip), vehicle: saline with Tween-80
[19] = dose: 400.0 mg/kg/injection, schedule: Q04DX002 (ip), vehicle: saline with Tween-80
[20] = dose: 100.0 mg/kg/injection, schedule: Q01DX001 (ip), vehicle: carboxymethylcellulose (CMC)
[21] = dose: 200.0 mg/kg/injection, schedule: Q01DX001 (ip), vehicle: carboxymethylcellulose (CMC)

Measured: T/C

O=[N+]([O-])c1ccc(Cl)nc1
inactive: [1] 103 % of control | dose: 100.0 mg/kg/injection, schedule: Q01DX009 (ip), vehicle: saline sonified 100 % of control | [2] 101 % of control | dose: 200.0 mg/kg/injection, schedule: Q01DX009 (ip), vehicle: saline sonified 104 % of control | [3] 103 % of control

CCS(=O)(=O)CC(C)O (configuration not stated)
inactive: dose: 100.0 mg/kg/injection, schedule: Q01DX009 (ip), vehicle: saline 90 % of control | [4] 101 % of control | dose: 200.0 mg/kg/injection, schedule: Q01DX009 (ip), vehicle: saline 93 % of control | dose: 400.0 mg/kg/injection, schedule: Q01DX009 (ip), vehicle: saline 104 % of control | [5] 108 % of control

COc1cccc(CC(=O)NCCc2ccc(OC)c(OC)c2)c1
inactive: [6] 92 % of control | [7] 92 % of control | [8] 95 % of control | [9] 94 % of control | [10] 90 % of control | [11] 91 % of control

CCC(SC#N)C(CC)SC#N (configuration not stated)
inactive: dose: 12.5 mg/kg/injection, schedule: Q04DX002 (ip), vehicle: Klucel (hydroxypropylcellulose) (HPC) 103 % of control | dose: 25.0 mg/kg/injection, schedule: Q04DX002 (ip), vehicle: Klucel (hydroxypropylcellulose) (HPC) 93 % of control | dose: 50.0 mg/kg/injection, schedule: Q04DX002 (ip), vehicle: Klucel (hydroxypropylcellulose) (HPC) 90 % of control

CC1S(=O)(=O)CC(NC(=O)N(CCCl)N=O)CS1(=O)=O (configuration not stated)
inactive: dose: 135.0 mg/kg/injection, schedule: Q01DX001 (ip), vehicle: saline with Tween-80 116 % of control
active: dose: 3.5 mg/kg/injection, schedule: Q01DX001 (ip), vehicle: saline with Tween-80 159 % of control | dose: 5.3 mg/kg/injection, schedule: Q01DX001 (ip), vehicle: saline with Tween-80 172 % of control and 208 % of control | dose: 8.0 mg/kg/injection, schedule: Q01DX001 (ip), vehicle: saline with Tween-80 278 % of control and 309 % of control | dose: 12.0 mg/kg/injection, schedule: Q01DX001 (ip), vehicle: saline with Tween-80 357 % of control [middle of 4 runs] | dose: 18.0 mg/kg/injection, schedule: Q01DX001 (ip), vehicle: saline with Tween-80 324 % of control and 421 % of control | dose: 26.0 mg/kg/injection, schedule: Q01DX001 (ip), vehicle: saline with Tween-80 444 % of control and 458 % of control | dose: 40.0 mg/kg/injection, schedule: Q01DX001 (ip), vehicle: saline with Tween-80 516 % of control and 442 % of control | dose: 60.0 mg/kg/injection, schedule: Q01DX001 (ip), vehicle: saline with Tween-80 421 % of control and 156 % of control | dose: 90.0 mg/kg/injection, schedule: Q01DX001 (ip), vehicle: saline with Tween-80 252 % of control and 258 % of control

C(=Nc1ccccc1)c1ccc2c(c1)COO2
inactive: [12] 101 % of control | [13] 101 % of control | dose: 400.0 mg/kg/injection, schedule: Q04DX003 (ip), vehicle: Klucel (hydroxypropylcellulose) (HPC) 101 % of control

Nc1nc(SCc2ccncc2)c2[nH]cnc2n1
inactive: dose: 178.0 mg/kg/injection, schedule: Q01DX001 (ip), vehicle: saline 118 % of control

Nc1ccc(-c2ccc(N)c(Cl)c2)cc1Cl
inactive: dose: 100.0 mg/kg/injection, schedule: Q04DX003 (ip), vehicle: saline 100 % of control | dose: 200.0 mg/kg/injection, schedule: Q04DX003 (ip), vehicle: saline 103 % of control | dose: 400.0 mg/kg/injection, schedule: Q04DX003 (ip), vehicle: saline 91 % of control

COC(=O)c1cc(C)ccc1C
inactive: [1] 101 % of control | [2] 98 % of control | [3] 101 % of control

N#Cc1c(CSC(=N)N)sc2ccccc12
inactive: dose: 12.5 mg/kg/injection, schedule: Q04DX003 (ip), vehicle: Klucel (hydroxypropylcellulose) (HPC) 102 % of control | dose: 25.0 mg/kg/injection, schedule: Q01DX009 (ip), vehicle: Klucel (hydroxypropylcellulose) (HPC) 105 % of control | dose: 25.0 mg/kg/injection, schedule: Q04DX003 (ip), vehicle: Klucel (hydroxypropylcellulose) (HPC) 101 % of control | [14] 101 % of control | dose: 50.0 mg/kg/injection, schedule: Q04DX003 (ip), vehicle: Klucel (hydroxypropylcellulose) (HPC) 96 % of control | [15] 100 % of control | [12] 98 % of control

O=c1cc(C(F)(F)F)nc(C(F)(F)F)[nH]1
inactive: dose: 29.0 mg/kg/injection, schedule: Q01DX Z (ip), vehicle: methylcellulose (MC) 90 % of control | dose: 45.0 mg/kg/injection, schedule: Q01DX Z (ip), vehicle: methylcellulose (MC) 89 % of control | dose: 67.0 mg/kg/injection, schedule: Q01DX Z (ip), vehicle: methylcellulose (MC) 89 % of control | [16] 88 % of control

COC(=O)c1ccccc1NC(=O)c1cc(C(=O)O)c(C(=O)Nc2ccccc2C(=O)OC)cc1C(=O)O
inactive: [6] 93 % of control and 107 % of control | [17] 100 % of control and 103 % of control | [7] 102 % of control | [8] 97 % of control and 113 % of control | [18] 106 % of control and 109 % of control | [9] 100 % of control | [10] 97 % of control and 92 % of control | [19] 96 % of control and 92 % of control | [11] 102 % of control

CC(C)=CCC/C(C)=C\C(N)=O
inactive: [1] 106 % of control | [2] 92 % of control | [3] 111 % of control

COC(=O)CC12CCCC(C)(CC(=O)N1)C2 (configuration not stated)
inactive: [20] 93 % of control | [21] 96 % of control | dose: 400.0 mg/kg/injection, schedule: Q01DX001 (ip), vehicle: carboxymethylcellulose (CMC) 98 % of control

CCn1nnc2c(N(C)C)nc(N)nc21
inactive: [14] 93 % of control | [15] 95 % of control | [12] 93 % of control | [13] 92 % of control

Cn1nc(C(=O)O)c(=O)[nH]c1=S
inactive: [16] 97 % of control | dose: 200.0 mg/kg/injection, schedule: Q01DX Z (ip), vehicle: methylcellulose (MC) 92 % of control

Cc1cccc(NC(=O)CSc2ccc(Cl)cc2)c1
inactive: dose: 100.0 mg/kg/injection, schedule: Q04DX002 (sc), vehicle: olive oil, sesame oil, peanut oil 100 % of control | dose: 200.0 mg/kg/injection, schedule: Q04DX002 (sc), vehicle: olive oil, sesame oil, peanut oil 106 % of control | dose: 400.0 mg/kg/injection, schedule: Q04DX002 (sc), vehicle: olive oil, sesame oil, peanut oil 89 % of control

CC(=O)OC(c1ccccc1)C(C)C (configuration not stated)
inactive: [4] 107 % of control | dose: 200.0 mg/kg/injection, schedule: Q04DX002 (ip), vehicle: saline 96 % of control | [5] 103 % of control

Cn1nc(SCc2ccccc2)c(=O)n(C(c2ccccc2)c2ccccc2)c1=O
inactive: [20] 104 % of control | [21] 93 % of control

Cc1c(Cl)cccc1NC(=O)Nc1cccc(O)c1
inactive: [6] 104 % of control and 89 % of control | [17] 97 % of control and 100 % of control | [7] 101 % of control | [8] 95 % of control and 97 % of control | [18] 93 % of control and 89 % of control | [9] 100 % of control | [10] 93 % of control and 90 % of control | [19] 93 % of control and 94 % of control | [11] 97 % of control

COc1cc2c(c(OC)c1OC)c(=O)c1ccccc1n2C
inactive: dose: 50.0 mg/kg/injection, schedule: Q01DX Z (ip), vehicle: carboxymethylcellulose (CMC) 97 % of control | dose: 100.0 mg/kg/injection, schedule: Q01DX Z (ip), vehicle: carboxymethylcellulose (CMC) 103 % of control | dose: 200.0 mg/kg/injection, schedule: Q01DX Z (ip), vehicle: carboxymethylcellulose (CMC) 101 % of control

O=C(N1CCN=C1C(Cl)(Cl)Cl)C(Cl)(Cl)Cl
inactive: [7] 100 % of control | [9] 102 % of control | [11] 102 % of control

CCCN1CCN(CCCO)CC1C (configuration not stated)
inactive: [1] 103 % of control | [2] 105 % of control | [3] 103 % of control

Cc1ccc(C)c(Cc2c(C=O)[nH]c(=S)[nH]c2=O)c1
inactive: [7] 97 % of control | [9] 101 % of control | [11] 110 % of control

O=C(Nc1cccc(C(=O)O)c1)Nc1cccc(C(F)(F)F)c1
inactive: [15] 86 % of control | dose: 200.0 mg/kg/injection, schedule: Q01DX009 (ip), vehicle: Klucel (hydroxypropylcellulose) (HPC) 86 % of control
